Among the data in patent US12227500B2, “Substituted pyrrolo[2,3-b]pyridines for suppressing toxic endoplasmic reticulum stress” (THE TRUSTEES OF COLUMBIA UNIVERSITY IN THE CITY OF NEW YORK, priority 2018, dated 2025) are remaining activity values, retold here.

What all share (experiment): Radiolabeled ATP kinase assay, panel of 371 kinases (Table S6)
Holding throughout (type): biochemical

The target of assay [1] is T1, panel of 371 human kinases (Homo sapiens, UniProt O15146).
T1 construct: purchased Reaction Biology Corp
Particulars: MUSK; 0.1 μM; 10 μM ATP; read-out: % Enzyme Activity (relative to DMSO controls). The source says: (§1) ; FIG. 38C). […]. Further targeted analyses, such as genetic knock-down or knock-out, may be warranted to parse the role of these additional kinases in our model of neurodegeneration.

The target of assay [2] is T2, panel of 371 human kinases (Homo sapiens, UniProt O15264).
T2 construct: purchased Reaction Biology Corp
Particulars: P38d/MAPK13; 0.1 μM; 10 μM ATP; read-out: % Enzyme Activity (relative to DMSO controls).
Excerpt: as §1

Assay [3] concerns the target T3, panel of 371 human kinases (Homo sapiens, UniProt P05129).
T3 construct: purchased Reaction Biology Corp
Particulars: PKCg; 0.1 μM; 10 μM ATP; read-out: % Enzyme Activity (relative to DMSO controls).
Excerpt: as §1

Assay [4] has as its target T4, panel of 371 human kinases (Homo sapiens, UniProt P07949).
T4 construct: purchased Reaction Biology Corp
Particulars: RET; 0.1 μM; 10 μM ATP; read-out: % Enzyme Activity (relative to DMSO controls).
Excerpt: as §1

Assay [5] addresses T5, panel of 371 human kinases (Homo sapiens, UniProt P11362).
T5 construct: purchased Reaction Biology Corp
Particulars: FGFR1; 0.1 μM; 10 μM ATP; read-out: % Enzyme Activity (relative to DMSO controls).
Excerpt: as §1

Assay [6] addresses T6, panel of 371 human kinases (Homo sapiens, UniProt P29317).
T6 construct: purchased Reaction Biology Corp
Particulars: EPHA2; 0.1 μM; 10 μM ATP; read-out: % Enzyme Activity (relative to DMSO controls).
Excerpt: as §1

The target of assay [7] is T7, panel of 371 human kinases (Homo sapiens, UniProt P36888).
T7 construct: purchased Reaction Biology Corp
Particulars: FLT3; 0.1 μM; 10 μM ATP; read-out: % Enzyme Activity (relative to DMSO controls).
Excerpt: as §1

Assay [8] has as its target T8, panel of 371 human kinases (Homo sapiens, UniProt P43403).
T8 construct: purchased Reaction Biology Corp
Particulars: ZAP70; 0.1 μM; 10 μM ATP; read-out: % Enzyme Activity (relative to DMSO controls).
Excerpt: as §1

Assay [9] concerns the target T9, panel of 371 human kinases (Homo sapiens, UniProt P49760).
T9 construct: purchased Reaction Biology Corp
Particulars: CLK2; 0.1 μM; 10 μM ATP; read-out: % Enzyme Activity (relative to DMSO controls).
Excerpt: as §1

The target in assay [10] is T10, panel of 371 human kinases (Homo sapiens, UniProt P51617).
T10 construct: purchased Reaction Biology Corp
Particulars: IRAK1; 0.1 μM; 10 μM ATP; read-out: % Enzyme Activity (relative to DMSO controls).
Excerpt: as §1

The target of assay [11] is T11, panel of 371 human kinases (Homo sapiens, UniProt P51956).
T11 construct: purchased Reaction Biology Corp
Particulars: NEK3; 0.1 μM; 10 μM ATP; read-out: % Enzyme Activity (relative to DMSO controls).
Excerpt: as §1

Assay [12] has as its target T12, panel of 371 human kinases (Homo sapiens, UniProt P54762).
T12 construct: purchased Reaction Biology Corp
Particulars: EPHB1; 0.1 μM; 10 μM ATP; read-out: % Enzyme Activity (relative to DMSO controls).
Excerpt: as §1

In assay [13] the target is T13, panel of 371 human kinases (Homo sapiens, UniProt Q02750).
T13 construct: purchased Reaction Biology Corp
Particulars: MEK1; 0.1 μM; 10 μM ATP; read-out: % Enzyme Activity (relative to DMSO controls).
Excerpt: as §1

Assay [14] has as its target T14, panel of 371 human kinases (Homo sapiens, UniProt Q07002).
T14 construct: purchased Reaction Biology Corp
Particulars: CDK18/cyclin Y (PCTK3); 0.1 μM; 10 μM ATP; read-out: % Enzyme Activity (relative to DMSO controls).
Excerpt: as §1

The target in assay [15] is T15, panel of 371 human kinases (Homo sapiens, UniProt Q13164).
T15 construct: purchased Reaction Biology Corp
Particulars: ERK5/MAPK7; 0.1 μM; 10 μM ATP; read-out: % Enzyme Activity (relative to DMSO controls).
Excerpt: as §1

Assay [16] deals with T16, panel of 371 human kinases (Homo sapiens, UniProt Q13464).
T16 construct: purchased Reaction Biology Corp
Particulars: ROCK1; 0.1 μM; 10 μM ATP; read-out: % Enzyme Activity (relative to DMSO controls).
Excerpt: as §1

The target in assay [17] is T17, panel of 371 human kinases (Homo sapiens, UniProt Q15569).
T17 construct: purchased Reaction Biology Corp
Particulars: TESK1; 0.1 μM; 10 μM ATP; read-out: % Enzyme Activity (relative to DMSO controls).
Excerpt: as §1

Assay [18] concerns the target T18, panel of 371 human kinases (Homo sapiens, UniProt Q16566).
T18 construct: purchased Reaction Biology Corp
Particulars: CAMK4; 0.1 μM; 10 μM ATP; read-out: % Enzyme Activity (relative to DMSO controls).
Excerpt: as §1

Assay [19] addresses T19, panel of 371 human kinases (Homo sapiens, UniProt Q5TCY1).
T19 construct: purchased Reaction Biology Corp
Particulars: TTBK1; 0.1 μM; 10 μM ATP; read-out: % Enzyme Activity (relative to DMSO controls).
Excerpt: as §1

The target in assay [20] is T20, panel of 371 human kinases (Homo sapiens, UniProt Q6P2M8).
T20 construct: purchased Reaction Biology Corp
Particulars: CAMK1b; 0.1 μM; 10 μM ATP; read-out: % Enzyme Activity (relative to DMSO controls).
Excerpt: as §1

Assay [21] concerns the target T21, panel of 371 human kinases (Homo sapiens, UniProt Q96GD4).
T21 construct: purchased Reaction Biology Corp
Particulars: Aurora B; 0.1 μM; 10 μM ATP; read-out: % Enzyme Activity (relative to DMSO controls).
Excerpt: as §1

In assay [22] the target is T22, panel of 371 human kinases (Homo sapiens, UniProt Q9H792).
T22 construct: purchased Reaction Biology Corp
Particulars: PEAK1; 0.1 μM; 10 μM ATP; read-out: % Enzyme Activity (relative to DMSO controls).
Excerpt: as §1

Assay [23] concerns the target T23, panel of 371 human kinases (Homo sapiens, UniProt Q9UBS0).
T23 construct: purchased Reaction Biology Corp
Particulars: p70S6Kb/RPS6KB2; 0.1 μM; 10 μM ATP; read-out: % Enzyme Activity (relative to DMSO controls).
Excerpt: as §1

Assay [24] deals with T24, panel of 371 human kinases (Homo sapiens, UniProt Q9UPZ9).
T24 construct: purchased Reaction Biology Corp
Particulars: LCK2/ICK; 0.1 μM; 10 μM ATP; read-out: % Enzyme Activity (relative to DMSO controls).
Excerpt: as §1

T5 sequence (P11362 22-822): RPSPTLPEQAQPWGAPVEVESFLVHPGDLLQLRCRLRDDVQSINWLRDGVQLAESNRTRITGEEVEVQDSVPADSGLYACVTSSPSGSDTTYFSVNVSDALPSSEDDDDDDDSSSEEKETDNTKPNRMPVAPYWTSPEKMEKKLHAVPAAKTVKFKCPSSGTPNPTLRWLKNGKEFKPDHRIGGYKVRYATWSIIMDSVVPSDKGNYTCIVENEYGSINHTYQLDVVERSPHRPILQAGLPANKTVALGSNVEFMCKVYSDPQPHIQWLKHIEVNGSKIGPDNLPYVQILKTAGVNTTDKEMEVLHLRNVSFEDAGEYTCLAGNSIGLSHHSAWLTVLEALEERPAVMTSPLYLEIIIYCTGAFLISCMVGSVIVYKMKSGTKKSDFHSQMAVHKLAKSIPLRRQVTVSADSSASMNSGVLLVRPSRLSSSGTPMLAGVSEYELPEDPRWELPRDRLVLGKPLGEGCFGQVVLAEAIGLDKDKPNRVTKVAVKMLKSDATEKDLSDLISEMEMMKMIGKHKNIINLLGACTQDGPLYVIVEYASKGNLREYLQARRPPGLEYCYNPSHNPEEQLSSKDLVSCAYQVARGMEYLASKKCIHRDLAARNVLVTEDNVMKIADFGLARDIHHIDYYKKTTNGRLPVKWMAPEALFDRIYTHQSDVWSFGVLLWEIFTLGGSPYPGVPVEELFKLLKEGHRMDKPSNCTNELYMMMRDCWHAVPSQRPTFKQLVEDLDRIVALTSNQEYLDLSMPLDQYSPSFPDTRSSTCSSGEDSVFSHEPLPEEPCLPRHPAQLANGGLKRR
T15 sequence (Q13164 whole entry): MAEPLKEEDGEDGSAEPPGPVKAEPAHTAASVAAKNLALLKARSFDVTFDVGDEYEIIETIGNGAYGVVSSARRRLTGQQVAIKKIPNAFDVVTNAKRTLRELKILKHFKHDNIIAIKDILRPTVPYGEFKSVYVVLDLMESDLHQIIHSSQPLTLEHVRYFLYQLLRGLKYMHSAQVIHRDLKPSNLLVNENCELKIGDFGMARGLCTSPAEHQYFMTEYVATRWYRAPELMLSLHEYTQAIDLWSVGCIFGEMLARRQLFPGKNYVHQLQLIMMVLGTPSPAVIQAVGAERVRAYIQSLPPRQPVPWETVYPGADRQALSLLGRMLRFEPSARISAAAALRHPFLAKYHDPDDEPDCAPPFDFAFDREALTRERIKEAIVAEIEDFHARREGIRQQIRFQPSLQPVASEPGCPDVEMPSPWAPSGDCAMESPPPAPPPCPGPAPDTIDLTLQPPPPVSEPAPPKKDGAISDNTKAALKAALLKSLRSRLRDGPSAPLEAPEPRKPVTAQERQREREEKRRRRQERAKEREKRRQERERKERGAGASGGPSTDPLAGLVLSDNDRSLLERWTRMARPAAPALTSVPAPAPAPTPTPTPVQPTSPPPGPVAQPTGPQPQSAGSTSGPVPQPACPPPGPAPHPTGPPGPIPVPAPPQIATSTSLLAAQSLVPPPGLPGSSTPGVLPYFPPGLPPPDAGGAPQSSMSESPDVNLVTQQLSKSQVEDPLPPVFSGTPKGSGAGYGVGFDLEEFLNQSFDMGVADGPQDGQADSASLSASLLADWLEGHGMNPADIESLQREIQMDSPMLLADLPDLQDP
T13 sequence (Q02750 whole entry): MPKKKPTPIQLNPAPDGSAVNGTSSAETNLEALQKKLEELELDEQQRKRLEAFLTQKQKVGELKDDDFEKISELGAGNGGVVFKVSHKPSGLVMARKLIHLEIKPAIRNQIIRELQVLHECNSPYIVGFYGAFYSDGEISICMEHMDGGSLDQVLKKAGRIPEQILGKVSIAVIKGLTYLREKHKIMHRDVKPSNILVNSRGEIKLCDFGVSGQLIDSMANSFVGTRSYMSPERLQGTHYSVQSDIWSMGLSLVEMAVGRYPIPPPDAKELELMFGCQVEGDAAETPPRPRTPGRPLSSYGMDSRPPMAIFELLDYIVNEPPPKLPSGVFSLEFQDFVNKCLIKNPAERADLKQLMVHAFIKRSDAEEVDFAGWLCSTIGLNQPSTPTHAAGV
T1 sequence (O15146 24-869): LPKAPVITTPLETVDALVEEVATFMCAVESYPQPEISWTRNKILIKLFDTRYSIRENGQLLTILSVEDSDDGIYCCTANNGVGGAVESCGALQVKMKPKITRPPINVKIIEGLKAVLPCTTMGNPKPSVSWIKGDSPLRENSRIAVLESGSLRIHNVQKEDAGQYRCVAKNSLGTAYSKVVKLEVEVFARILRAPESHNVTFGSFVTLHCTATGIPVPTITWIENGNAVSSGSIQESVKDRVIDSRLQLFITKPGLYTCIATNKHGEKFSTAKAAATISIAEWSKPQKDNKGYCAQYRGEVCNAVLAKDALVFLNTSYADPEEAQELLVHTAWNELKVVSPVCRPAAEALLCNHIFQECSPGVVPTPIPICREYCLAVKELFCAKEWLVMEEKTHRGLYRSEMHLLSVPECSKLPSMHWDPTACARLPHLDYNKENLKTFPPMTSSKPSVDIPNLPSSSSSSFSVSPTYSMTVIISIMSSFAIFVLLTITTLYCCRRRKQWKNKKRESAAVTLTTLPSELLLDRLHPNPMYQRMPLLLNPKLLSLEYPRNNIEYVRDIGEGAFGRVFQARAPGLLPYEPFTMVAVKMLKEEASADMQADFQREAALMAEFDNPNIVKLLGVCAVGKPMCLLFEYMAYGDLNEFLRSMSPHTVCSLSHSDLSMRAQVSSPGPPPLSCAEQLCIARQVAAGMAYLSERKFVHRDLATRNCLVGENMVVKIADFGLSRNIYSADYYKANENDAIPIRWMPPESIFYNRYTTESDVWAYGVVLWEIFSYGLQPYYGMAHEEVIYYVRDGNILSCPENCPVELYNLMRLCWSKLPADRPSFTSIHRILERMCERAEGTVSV
T10 sequence (P51617 whole entry): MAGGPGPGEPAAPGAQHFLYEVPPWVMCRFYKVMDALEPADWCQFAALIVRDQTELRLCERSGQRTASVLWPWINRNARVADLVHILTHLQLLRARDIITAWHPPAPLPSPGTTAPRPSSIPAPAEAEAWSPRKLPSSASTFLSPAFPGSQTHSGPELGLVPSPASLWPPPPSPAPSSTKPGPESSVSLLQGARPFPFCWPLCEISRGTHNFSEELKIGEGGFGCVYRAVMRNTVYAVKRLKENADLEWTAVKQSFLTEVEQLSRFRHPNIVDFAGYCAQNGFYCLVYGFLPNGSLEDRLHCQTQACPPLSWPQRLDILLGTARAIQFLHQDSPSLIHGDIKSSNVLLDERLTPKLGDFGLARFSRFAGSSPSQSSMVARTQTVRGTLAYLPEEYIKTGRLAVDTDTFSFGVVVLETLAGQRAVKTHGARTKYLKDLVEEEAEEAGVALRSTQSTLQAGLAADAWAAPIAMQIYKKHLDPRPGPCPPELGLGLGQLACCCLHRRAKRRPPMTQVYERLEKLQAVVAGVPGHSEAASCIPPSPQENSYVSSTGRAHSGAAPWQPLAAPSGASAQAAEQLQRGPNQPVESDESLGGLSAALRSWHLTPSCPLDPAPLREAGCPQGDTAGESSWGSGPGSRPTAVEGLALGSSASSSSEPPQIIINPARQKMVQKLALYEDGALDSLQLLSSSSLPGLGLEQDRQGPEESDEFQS
T4 sequence (P07949 29-1114): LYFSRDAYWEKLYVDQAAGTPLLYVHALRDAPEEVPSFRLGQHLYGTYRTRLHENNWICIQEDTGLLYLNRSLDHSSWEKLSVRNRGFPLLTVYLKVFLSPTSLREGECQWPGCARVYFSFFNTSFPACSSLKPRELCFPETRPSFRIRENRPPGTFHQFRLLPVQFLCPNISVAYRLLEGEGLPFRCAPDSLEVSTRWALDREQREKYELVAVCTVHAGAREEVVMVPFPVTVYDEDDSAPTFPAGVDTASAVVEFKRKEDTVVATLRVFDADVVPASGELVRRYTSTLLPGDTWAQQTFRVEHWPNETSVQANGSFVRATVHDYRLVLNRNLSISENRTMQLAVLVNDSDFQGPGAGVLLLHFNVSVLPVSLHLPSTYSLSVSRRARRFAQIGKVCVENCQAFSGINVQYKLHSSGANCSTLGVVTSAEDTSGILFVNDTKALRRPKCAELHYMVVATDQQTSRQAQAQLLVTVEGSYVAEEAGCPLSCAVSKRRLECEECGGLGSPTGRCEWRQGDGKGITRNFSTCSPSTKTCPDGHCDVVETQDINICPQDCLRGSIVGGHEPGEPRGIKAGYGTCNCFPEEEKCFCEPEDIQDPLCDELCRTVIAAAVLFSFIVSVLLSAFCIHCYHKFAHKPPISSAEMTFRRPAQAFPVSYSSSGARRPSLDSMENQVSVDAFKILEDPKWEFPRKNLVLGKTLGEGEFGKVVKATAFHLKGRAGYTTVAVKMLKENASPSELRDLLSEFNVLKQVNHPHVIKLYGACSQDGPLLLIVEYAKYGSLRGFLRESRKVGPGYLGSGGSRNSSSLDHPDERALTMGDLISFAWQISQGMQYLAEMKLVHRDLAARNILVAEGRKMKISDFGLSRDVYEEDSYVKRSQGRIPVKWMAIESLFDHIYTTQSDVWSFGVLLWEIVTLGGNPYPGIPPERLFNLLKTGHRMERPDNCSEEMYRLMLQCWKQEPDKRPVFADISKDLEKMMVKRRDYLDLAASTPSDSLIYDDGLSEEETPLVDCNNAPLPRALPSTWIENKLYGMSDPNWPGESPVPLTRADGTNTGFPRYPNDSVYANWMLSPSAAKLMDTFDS
T21 sequence (Q96GD4 whole entry): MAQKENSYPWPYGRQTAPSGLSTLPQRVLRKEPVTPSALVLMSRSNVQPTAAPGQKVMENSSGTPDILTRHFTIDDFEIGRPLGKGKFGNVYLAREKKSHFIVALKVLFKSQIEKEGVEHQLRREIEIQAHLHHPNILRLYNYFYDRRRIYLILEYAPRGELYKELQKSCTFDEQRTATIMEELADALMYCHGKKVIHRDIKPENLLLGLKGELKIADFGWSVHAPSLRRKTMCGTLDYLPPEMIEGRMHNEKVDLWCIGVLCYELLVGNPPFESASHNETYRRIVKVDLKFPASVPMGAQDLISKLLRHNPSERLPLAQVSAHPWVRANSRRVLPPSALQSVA

`OCCN1CCN(Cc2ccc(-c3cnc4[nH]cc(-c5cccc(Cl)c5)c4c3)cc2)CC1` [Compound 12k, 2-(4-(4-(3-(3-Chlorophenyl)-1H-pyrrolo[2,3-b]pyridin-5-yl)benzyl)piperazin-1-yl)ethan-1-ol]: the remaining activity at 0.1 µM in [1] worked out at 86.7%; in [2] it was 103%; in [3] it was 106%; in assay [4] it was 91.5%; in [5], 95%; in [6] it was 92.3%. Further, the remaining activity at 0.1 µM in assay [7] amounted to 29.4%; in assay [8] it was 102%; in assay [9] it was 55.8%; in assay [10], 73.2%; in assay [11], 91.1%; in [12], 98.3%. For the same molecule, the remaining activity at 0.1 µM amounted to 92.7% in assay [13]; 77.5% in assay [14]; 113% in assay [15]; 79.2% in assay [16]; 101% in assay [17]; 100% in [18]. The remaining activity at 0.1 µM was determined as 106% in assay [19]; 103% in assay [20]; 82.6% in assay [21]; 101% in assay [22]; 95% in [23]; 109% in assay [24].

`CN1CCN(Cc2ccc(-c3cnc4[nH]cc(-c5ccc6[nH]ccc6c5)c4c3)cc2)CC1` [Compound 1, 3-(1H-Indol-5-yl)-5-(4-((4-methylpiperazin-1-yl)methyl)phenyl)-1H-pyrrolo[2,3-b]pyridine, reference compound]: the remaining activity at 0.1 µM in [1] came out at 101%; in assay [2], 132%; in assay [3], 89%; in [4] it was 76.7%; in [5], 93.9%; in assay [6], 93.6%. Further, the remaining activity at 0.1 µM in [7] is 22.3%; in assay [8], 103%; in assay [9], 48.2%; in [10] it was 86.2%; in assay [11], 88.3%; in [12], 83%. Also, the remaining activity at 0.1 µM was found to be 111% in assay [13]; 90.3% in assay [14]; 102% in assay [15]; 94.7% in [16]; 105% in assay [17]; 95.1% in assay [18]. Besides, the remaining activity at 0.1 µM in assay [19] is 111%; in assay [20], 105%; in assay [21], 103%; in assay [22] it was 109%; in [23], 107%; in assay [24], 111%.
